The Ki is a dissociation constant, usually derived from enzyme kinetics or from competition with a known ligand.

The target of this experiment is T1, Bcl-2 protein (Homo sapiens, UniProt P10415, DELINS35-91DVEENRTEAPEGTESE, form not given).
T1 construct: fused on or other part: Bcl-xL (Q07817) residues 29-44 stand in place of Bcl-2's own unstructured loop 35-91; The C-terminal membrane anchor (208-239) is absent
The experiment is described as follows: Bcl-2 fluorescence polarization assay (FPA) binding. The conditions noted are these: 10 nM Bcl-2 protein, 1 nM fluorescein-labeled BAX peptide, room temperature, read-out: Bcl-2 FPA 11pt Ki. The essentials:
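Competitive fluorescence polarization with 10 nM Bcl-2 protein and 1 nM fluorescein-labeled BAX peptide in 20 mM phosphate pH 7.4, 1 mM EDTA, 0.05% PF-68. Compound dilutions in DMSO spanned […] to 10 pM; mix shaken 2 min, polarization read at room temperature (ex 485/em 530 nm); Ki values calculated.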
Background: Polarisation of emitted light reports the rotation of a fluorescent probe.

T1 sequence (P10415 with tags, fused parts or gaps with the stated changes): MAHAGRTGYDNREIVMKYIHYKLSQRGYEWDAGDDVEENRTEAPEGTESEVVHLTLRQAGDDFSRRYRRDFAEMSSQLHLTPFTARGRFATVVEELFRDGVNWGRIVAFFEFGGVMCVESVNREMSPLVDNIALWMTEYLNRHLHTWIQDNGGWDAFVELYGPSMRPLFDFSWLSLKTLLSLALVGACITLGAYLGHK

Consider `O=C(NS(=O)(=O)c1ccc(NC2CCOCC2)c([N+](=O)[O-])c1)c1ccc(NCC2C3CC4CC(C3)CC2C4)cc1` (stereo not shown) [Example 50, 4-{[adamantan-2-ylmethyl]amino}-N-{[3-nitro-4-(tetrahydro-2H-pyran-4-ylamino)phenyl]sulfonyl}benzamide], for which the Ki is 3.56 µM. Take “N-(adamantan-2-yl)-6-methyl-8-{2-[(4-{4-[({3-nitro-4-[(tetrahydro-2H-pyran-4-ylmethyl)amino]phenyl}sulfonyl)carbamoyl]phenyl}piperazin-1-yl)methyl]phenyl}imidazo[1,2-a]pyridine-2-carboxamide [Example 26]”: the Ki amounted to 1.17 µM. On to `O=C(NS(=O)(=O)c1ccc(NCC2CCOCC2)c([N+](=O)[O-])c1)c1ccc(N2CCC(=Cc3ccccc3-c3ccc(CN4C5CCCC4CC5)s3)CC2)cc1` [Example 71, 4-[4-(2-{5-[8-azabicyclo[3.2.1]oct-8-ylmethyl]-2-thienyl}benzylidene)piperidin-1-yl]-N-({3-nitro-4-[(tetrahydro-2H-pyran-4-ylmethyl)amino]phenyl}sulfonyl)benzamide], for which the inhibitory constant (Ki) is below 0.02 µM. As to `O=C(NS(=O)(=O)c1ccc(NCC2CCOCC2)c([N+](=O)[O-])c1)c1ccc(N2CCN(Cc3ccccc3-c3ccc(CN4C5CCCC4CC5)s3)CC2)cc1` [Example 40, 4-[4-(2-{5-[8-azabicyclo[3.2.1]oct-8-ylmethyl]-2-thienyl}benzyl)piperazin-1-yl]-N-({3-nitro-4-[(tetrahydro-2H-pyran-4-ylmethyl)amino]phenyl}sulfonyl)benzamide], the Ki worked out at 0.0547 µM. In the case of `O=C(NS(=O)(=O)c1ccc(NCC2CCOCC2)c([N+](=O)[O-])c1)c1ccc(N2CCN(Cc3ccccc3NC3CC4CC3C3CCCC43)CC2)cc1` (stereo not shown) [Example 16], the Ki is 0.0397 µM. Turning to `CC(=O)N(C1CCN(c2ccc(C(=O)NS(=O)(=O)c3ccc(NCC4CCCCC4)c([N+](=O)[O-])c3)cc2)CC1)[C@H]1C[C@H]2C[C@@H]([C@@H]1C)C2(C)C` [Example 2, 4-(4-{acetyl[(1S,2S,3S,5R)-2,6,6-trimethylbicyclo[3.1.1]hept-3-yl]amino}piperidin-1-yl)-N-({4-[(cyclohexylmethyl)amino]-3-nitrophenyl}sulfonyl)benzamide], the inhibitory constant (Ki) worked out at 0.22 µM. As for `C[C@@H]1[C@H]2C[C@@H](C[C@H]1Nc1ccc(S(=O)(=O)NC(=O)c3ccc(N4CCN(Cc5ccccc5-c5ccc(Cl)cc5)CC4)cc3)cc1[N+](=O)[O-])C2(C)C` [Example 1, 4-{4-[(4′-chlorobiphenyl-2-yl)methyl]piperazin-1-yl}-N-[(3-nitro-4-{[(1R,2R,3R,5S)-2,6,6-trimethylbicyclo[3.1.1]hept-3-yl]amino}phenyl)sulfonyl]benzamide], the Ki was 0.174 µM.

The record behind these values is US8188077B2, “Apoptosis-inducing agents for the treatment of cancer and immune and autoimmune diseases” (Abbott Laboratories, priority 2010, dated 2012).
